Test results published in patent US6632978B1, “Transgenic animals for studying regulation of genes” (Novartis AG, priority 1999, dated 2003).

B1: IFNg: IFNg, known not to induce E-selectin in vitro; control cytokine (protein, UniProt P01579 24-161, looked up)
Interferon gamma: QDPYVKEAENLKKYFNAGHSDVADNGTLFLGILKNWKEESDRKIMQSQIVSFYFKLFKNFKDDQSIQKSVETIKEDMNVKFFNSNKKKRDDFEKLTNYSVTDLNVQRKAIHELIQVMAELSPAAKTGKRKRSQMLFRG

Legend:
SEAP expression = experiment: Effect of inhibitory compounds on TNF-induced SEAP expression; type: in vivo, mouse; settings: for inhibition of marker enzyme (SEAP) expression: SEAP-1 animals (Example 2), 1 mg/kg i.v.; for modification of SEAP expression: SEAP-2 animals
Method: Test 5: Effect of Inhibitory Compounds on SEAP Expression.
Clasto-lactacystine-β-lactone, a commercially available proteasome inhibitor is dissolved in DMSO (10 μl/100 μg) and further diluted with 90 μl Peg300. This mixture is further diluted 1:10 in saline and injected i.v. to animals of Example 2 at a dose of 1 mg/kg. Ten to 15 min later TNF is administered i.p. to compound-treated or untreated animals of Example 2. Blood samples are taken from the animals at baseline, 6 hours and 24 hours and SEAP levels analyzed.

[1] = tested on: SEAP expression under the control of the E-selectin regulatory sequence; experiment: LPS and cytokine induction of SEAP expression in heterozygous mice; type: in vivo, mouse; settings: either line (SEAP-1, SEAP-2)
Method: Test 1: LPS and Cytokine Induction of SEAP Expression in Heterozygous Mice.
Heterozygous mice of Example 1 and Example 2 are injected with LPS (Sigma, Serotype 0:111B4 Cat. L4130) at a dose of 25 μg per mouse. Murine recombinant TNFα (R&D Systems, Cat No. 410-MT) is diluted in sterile saline and administered at a dose of 500 ng/mouse. Administration is intravenously, e.g., into the tail vein, subcutaneously or intraperitoneally.
Blood for analysis is taken from a superficial vein of the mouse into heparinized glass hematocrit capillaries. The blood is centrifuged in a table-top Eppendorff centrifuge at maximal speed for 5 min to prepare plasma.
A standard curve is created with human placental alkaline phosphatase (PAP) (Sigma Cat. P-3895). A stock solution of 2 mg/ml dissolved in buffer (Tris/HCl 50 mM pH 7.4; NaCl 150 mM; BSA 1%) is stored at −80° C. in aliquots. The standard curve is diluted in mouse plasma containing Heparin. The range of the standard curve is between 0.5 and 50000 ng/mL PAP.
For the enzyme assay the Tropix Kit (Tropix, Cat. No BP300) is used.
The results are plotted in FIGS. 3 and 4. […] The maximal levels of plasma SEAP are reached at 6 hours post-stimulation in animals of Example 2, the maximum reached in animals of Example 1 is not seen until 24 hours post stimulation. SEAP-2 mice express about 1000-fold more marker enzyme than SEAourP-1 animals. […]

| Molecule | inhibition of marker enzyme (SEAP) expression (SEAP expression; 6 hours after TNF) | inhibition of marker enzyme (SEAP) expression (SEAP expression; 24 hours after TNF) | modification of SEAP expression (SEAP expression; 6 hours after TNF) | modification of SEAP expression (SEAP expression; 24 hours after TNF) | effect on SEAP induction [1] |
| --- | --- | --- | --- | --- | --- |
| CC(C)[C@H](O)[C@@]12NC(=O)[C@H](C)[C@@H]1OC2=O [clasto-lactacystine-β-lactone, Clasto-lactacystine-β-lactone] | significant inhibition | no effect | does not modify | does not modify |  |
| B1 |  |  |  |  | no effect |
